Laboratory results reported in patent US20240074473A1, “METHOD FOR INDUCING HYPERTROPHIC MUSCLE FIBERS FOR INDUSTRIAL MEAT PRODUCTION” (Yeda Research and Development Co. Ltd., priority 2021, published 2024).

Columns and labels:
Format in all cases: cell-based
primary mouse myoblasts [1] = test: Fusion index of primary mouse myoblasts (MyHC immunostaining); conditions: first passage mouse primary myoblasts, 24 hours; 1 μM ERKi in growth medium vs. DM
Description: (§1) Isolation of and treatment of primary myoblasts. Primary mouse myoblasts were isolated from gastrocnemius muscle using trypsin-tissue dissociation. Briefly, muscle tissues were incubated in Trypsin B (0.25%, Biological Industries) and subjected to mechanical dissociation with a serological pipet. Supernatants were strained and centrifuged. Pellets were grown resuspended in BioAmf-2 media (Biological Industries, Israel) and plated on 10% Matrigel (BD Biosciences)-coated plates at 37° and 5% CO2. For all in vitro experiments, proliferation medium was Bio-Amf2 (Biological Industries, Israel) and Differentiation medium (DM) was DMEM 2% Horse Serum (HS) with 1% Pen/Strep. For fusion assays, cells were trypsinized with Trypsin C (0.05%, Biological Industries) and subjected to two rounds of preplating on uncoated plates to reduce the number of fibroblasts. Cells were plated at a density of 8×10^3 per well in 10% Matrigel-coated 96-well plates in proliferation medium for 24 hours. The following day, proliferation media was replaced either with proliferation media or with DM containing DMSO (Ctrl) or 1 μM ERK1/2 inhibitor (ERKi; SCH772984, Cayman Chemicals), […] RXR antagonist (RXRi; HX-531, Cayman Chemicals), […] Ryanodine receptor antagonist (RYRi; Dantrolene, Cayman Chemicals), 5 μM CaMKII inhibitor (CaMKIIi; KN93, Cayman Chemicals), or with DM for controls.
Immunofluorescence staining. First passage primary myoblasts isolated from various strains (indicated in figure legends) were plated in 96-well plates or chamber slides and treated as previously described. The cells were fixed with ice cold 4% PFA in PBS for 10 minutes, permeabilized with 0.5% Triton X-100 in PBS for 6 minutes, and blocked in PBS with 0.025% tween, 10% normal horse serum and 10% normal goat serum for 1 hour at room temperature. Primary antibody incubation was done in blocking buffer overnight at 4 degrees, with the following antibodies: Myosin Heavy Chain (MyHC, MF20, DSHB hybridoma supernatant 1:10, or MY-32 ABCAM ab51263 1:400), Myogenin (MYOG sc-13137 SCBT 1:200), pHistone 3 (PH3, ab47297 ABCAM 1:1000), Ki-67 (Cell Marque #275R), RYR (ab2868 ABCAM 1:100), and pCaMKII (SIGMA SAB4504356 1:100). Cells were washed 3 times in PBS with 0.025% tween and then incubated with appropriate secondary antibodies in PBS 1 hour. Where indicated, nuclei were either labeled with DAPI (SIGMA D9542, 5 ug/ml) or Hoechst 33342 (Thermo scientific #62249, 1:2000). Fixed cells at 24 hours post treatment with indicated inhibitors were imaged using the Nikon Eclipse Ti2 microscope (further described in microscopy section). All analysis was performed on at least 1000 nuclei. […]
Quantification of fusion index. Following immunostaining and imaging, a fusion index was quantified by manually identifying nuclei found in a MyHC positive cell with at least 2 nuclei. Then the values were expressed as a percentage of the total nuclei per field. Briefly, in Figures where fusion index is stratified into subgroups of fiber size, the nuclei number in MyHC positive cell was manually quantified in a given field and stratified into groups of mononucleated, bi-nucleated myotubes, myotubes with 3-10 nuclei and myotubes with greater than 10 nuclei. […] Fields were analyzed hourly, and nuclei per cell was quantified and stratified into mononucleated, bi-nucleated, tri-nucleated and cells with ≥4 nuclei.

primary mouse myoblasts [2] = test: MYOG positive nuclei in primary mouse myoblasts (immunofluorescence); conditions: 24 hours, ERKi in growth medium
Description: as §1
Immunofluorescence staining. First passage primary myoblasts isolated from various strains (indicated in figure legends) were plated in 96-well plates or chamber slides and treated as previously described. The cells were fixed with ice cold 4% PFA in PBS for 10 minutes, permeabilized with 0.5% Triton X-100 in PBS for 6 minutes, and blocked in PBS with 0.025% tween, 10% normal horse serum and 10% normal goat serum for 1 hour at room temperature. Primary antibody incubation was done in blocking buffer overnight at 4 degrees, with the following antibodies: Myosin Heavy Chain (MyHC, MF20, DSHB hybridoma supernatant 1:10, or MY-32 ABCAM ab51263 1:400), Myogenin (MYOG sc-13137 SCBT 1:200), pHistone 3 (PH3, ab47297 ABCAM 1:1000), Ki-67 (Cell Marque #275R), RYR (ab2868 ABCAM 1:100), and pCaMKII (SIGMA SAB4504356 1:100). Cells were washed 3 times in PBS with 0.025% tween and then incubated with appropriate secondary antibodies in PBS 1 hour. Where indicated, nuclei were either labeled with DAPI (SIGMA D9542, 5 ug/ml) or Hoechst 33342 (Thermo scientific #62249, 1:2000). Fixed cells at 24 hours post treatment with indicated inhibitors were imaged using the Nikon Eclipse Ti2 microscope (further described in microscopy section). All analysis was performed on at least 1000 nuclei. For fixed cells following the timecourse with ERKi or DM (FIG. 1B), images were captured with an inverted Olympus IX83 microscope (further details in microscopy section). All imaging analysis were performed on at least 1000 cells.

primary mouse myoblasts [3] = test: qRT-PCR gene expression in primary mouse myoblasts
Description: (§2) Quantitative real-time PCR (qRT-PCR). Total RNA was isolated using Tri-Reagent (SIGMA) according to the manufacturer's instructions. cDNA was synthesized with the High Capacity cDNA Reverse Transcription Kit (Applied Biosystems according to the manufacturer's instructions. qRT-PCR was performed with SYBR green PCR Master Mix (Applied Biosystems) using the StepOnePlus Real-time PCR system (Applied Biosystems). Values for specific genes were normalize to either Gapdh or Hprt housekeeping control as indicated in Figure legend. Expression was calculated using the ddCT method.
First passage primary mouse derived myoblast were seeded in proliferation media, in equal number in 12-well tissue culture plates that were precoated with 10% Matrigel solution. Following 24 hours to allow for complete attachment, culture media was washed and replaced either with fresh proliferation media (PM), PM supplemented with 1 uM SCH 772984 (ERKi) or differentiation media (DM). After 24 hrs, cells were lysed and RNA was collected. Gene expression analysis was carried out using SYBR green qRT-PCR analysis.

chicken myoblasts = test: qRT-PCR gene expression in chicken myoblasts
Description: as §2
Chicken primary derived myoblasts were used as a model to evaluate the efficiency of SCH772984 as the ERKi, compared to conventional differentiation medium (DM) for the purpose of producing muscle (meat) in tissue culture conditions. Chicken myoblasts were isolated from chicken embryos and expanded in proliferation medium. When sufficient cell numbers were acquired, cells were seeded on tissue culture plates and allowed to adhere for 24 hours. Then medium was changed to either PM supplemented with ERKi or DM. At 24-hours post treatment, the cells that received ERKi were replenished with fresh PM (without the addition of more ERKi), and DM treated cells were replenished with fresh DM. Media was replaced daily over a period of 72 hours.

bovine myoblasts = test: Immunofluorescence intensity of sarcomeric proteins in bovine myotubes; conditions: 96 hours post-treatment
Description: Shown is immunofluorescence staining of the sarcomeric components of myosin heavy chain (MyHC), alpha-actinin, and Tropoinin T at 96 hours post treatment either with proliferation media (PM), differentiation media (DM), or with 1 uM SCH 772984 (ERKi).

O=C(Nc1ccc2[nH]nc(-c3ccncc3)c2c1)[C@@H]1CCN(CC(=O)N2CCN(c3ccc(-c4ncccn4)cc3)CC2)C1 [SCH772984]
Fusion index (fraction of nuclei in differentiated MyHC+ cells) (primary mouse myoblasts [1]): 90.5% | Fraction of MYOG positive nuclei compared to DM (primary mouse myoblasts [2]): significantly higher | Expression of Ryr1, Ryr3, SERCA1/2, Orai and STIM (primary mouse myoblasts [3]; ERKi 24 hrs vs Ctrl): upregulated | Expression of differentiation and fusion factors MyoD, MyoG, Mymk, Mymx (primary mouse myoblasts [3]; ERKi in growth medium, time course): upregulated | Expression of maturation markers myosin heavy chain and troponin compared to DM (primary mouse myoblasts [3]; mouse myoblasts, 1 uM ERKi in PM, 24 hrs): stronger expression | Gene expression of maturation/differentiation markers mrf4, myh1, myh2, tnnt3 compared with DM (chicken myoblasts): elevated gene expression | Downregulation of Myf5 expression compared to DM (chicken myoblasts; 72 hour timecourse): stronger across all time points | Pax7 RNA expression (chicken myoblasts; 72 hour timecourse): reduction | Maturation markers (sarcomeric proteins MyHC, actinin, troponin signal intensity) compared to DM (bovine myoblasts): increased
